Results: the NIST ThermoML archive (doi:10.1016/j.jct.2014.07.023)

Experiment: molar heat capacity at constant pressure; xn = mol fraction of the nth substance listed
Conditions: 100 kPa, Liquid, Small sample (50 mg) DSC

CC(O)CCO (stereo not drawn) [1,3-butanediol] + CO
molar heat capacity at constant pressure [J/K/mol]
Conditions	293.15 K	298.15 K	303.15 K	308.15 K	313.15 K	318.15 K	323.15 K
x1 = 0.097	92.98	94.08	95.24	96.45	97.77	99.12	100.56
x1 = 0.1924	105.32	106.66	108.04	109.47	110.98	112.54	114.18
x1 = 0.2893	118.06	119.57	121.13	122.79	124.45	126.21	128.02
x1 = 0.3902	131.62	133.42	135.23	137.09	139	140.97	142.94
x1 = 0.4943	145.68	147.68	149.69	151.69	153.82	155.95	158.19
x1 = 0.6067	161	163.22	165.51	167.79	170.15	172.5	174.92
x1 = 0.7843	185.37	187.93	190.57	193.28	195.92	198.72	201.51
x1 = 0.9064	202.23	205.11	207.99	210.95	213.91	216.88	219.93
x1 = 0.9165	203.63	206.44	209.34	212.24	215.22	218.21	221.28
x1 = 0.9242	204.61	207.52	210.44	213.44	216.44	219.44	222.53
x1 = 0.9624	210.08	213.07	216.06	219.14	222.22	225.38	228.55
x1 = 1	215.84	218.9	222.06	225.21	228.37	231.61	234.86

OCCCCO [1,4-butanediol] + CO
molar heat capacity at constant pressure [J/K/mol]
Conditions	293.15 K	298.15 K	303.15 K	308.15 K	313.15 K	318.15 K	323.15 K
x1 = 0.1009	92.1	93.2	94.34	95.55	96.84	98.2	99.61
x1 = 0.1972	103.34	104.65	106	107.43	108.87	110.35	111.91
x1 = 0.2955	114.99	116.42	117.94	119.47	121.14	122.81	124.59
x1 = 0.4144	129.16	130.79	132.48	134.21	136.07	137.97	139.99
x1 = 0.5093	140.68	142.41	144.26	146.17	148.2	150.29	152.45
x1 = 0.624	154.46	156.51	158.55	160.74	162.92	165.25	167.5
x1 = 0.6996	163.59	165.7	167.88	170.13	172.46	174.93	177.4
x1 = 0.8004	175.9	178.18	180.54	182.97	185.48	188.08	190.75
x1 = 0.8591	183.21	185.59	188.05	190.59	193.21	195.91	198.7
x1 = 0.9043	188.15	190.69	193.23	195.85	198.55	201.34	204.22
x1 = 0.9565	194.9	197.44	200.07	202.87	205.67	208.56	211.63
x1 = 1	201.15	203.76	206.56	209.44	212.33	215.39	218.54

CC(O)C(C)O (stereo not drawn) [2,3-butanediol] + CO
molar heat capacity at constant pressure [J/K/mol]
Conditions	293.15 K	298.15 K	303.15 K	308.15 K	313.15 K	318.15 K	323.15 K
x1 = 0.0456	86.73	87.8	88.95	90.13	91.37	92.66	94.01
x1 = 0.0847	92.44	93.66	94.92	96.21	97.54	98.95	100.35
x1 = 0.1972	108.82	110.3	111.78	113.35	114.96	116.61	118.31
x1 = 0.2792	121.32	122.96	124.65	126.34	128.08	129.81	131.6
x1 = 0.3824	136.66	138.56	140.46	142.41	144.36	146.37	148.43
x1 = 0.4673	150.38	152.39	154.41	156.48	158.55	160.68	162.81
x1 = 0.5862	168.13	170.37	172.69	174.93	177.25	179.63	182.01
x1 = 0.7041	186.64	189.05	191.46	193.94	196.41	198.89	201.45
x1 = 0.8169	204.52	207.14	209.84	212.55	215.17	217.87	220.58
x1 = 0.8832	214.76	217.34	220.01	222.68	225.26	227.93	230.59
x1 = 0.9271	221.76	224.59	227.34	230.18	233.01	235.93	238.77
x1 = 0.9501	225.38	228	230.7	233.32	236.11	238.82	241.61
x1 = 1	233.95	236.66	239.36	242.07	244.77	247.47	250.18

CCC(O)CO (stereo not drawn) [1,2-butanediol] + CO
molar heat capacity at constant pressure [J/K/mol]
Conditions	293.15 K	298.15 K	303.15 K	308.15 K	313.15 K	318.15 K	323.15 K
x1 = 0.0476	87.09	88.16	89.28	90.46	91.68	92.97	94.33
x1 = 0.2098	110.52	111.89	113.35	114.81	116.36	117.95	119.55
x1 = 0.2964	123.04	124.67	126.29	127.97	129.69	131.42	133.19
x1 = 0.3913	137.52	139.33	141.14	143	144.86	146.72	148.64
x1 = 0.4706	148.79	150.69	152.65	154.55	156.51	158.53	160.49
x1 = 0.6016	168.53	170.74	172.88	175.02	177.24	179.38	181.52
x1 = 0.6991	182.48	184.81	187.13	189.46	191.71	194.03	196.36
x1 = 0.8042	198.84	201.2	203.65	206.01	208.45	210.81	213.25
x1 = 0.8917	211.25	213.85	216.37	218.97	221.48	224	226.43
x1 = 0.9224	216.09	218.66	221.31	223.88	226.45	229.02	231.59
x1 = 0.9627	222	224.64	227.27	229.91	232.46	235.01	237.65
x1 = 1	228.1	230.8	233.5	236.21	238.91	241.52	244.23
